Measured values taken from patent US10662218B2, “Analogs of celastrol” (ERX Pharmaceuticals, Inc., priority 2015, dated 2020).
Where “and” joins values, the source holds several entries; their conditions need not be identical. Equal values may be shown once. Read-outs that look alike come from different tables or passages of the source.

Legend:
[1] = system: C57BL/6 Diet Induced Obese (DIO) mice; assay: Oral (P.O.) administration study in DIO mice: animal fate (mortality) and clinical observations; conditions: 2 mg/kg
Description: Male C57BL/6 DIO mice were assigned to 12 groups, and doses of 2 mg/kg Celastrol (ERX1000-4), ERX1006, ERX1007, ERX1037, ERX1060, ERX1077, ERX1107, ERX1149, ERX1168, ERX1177, and Pristimerin were administered to Groups 2 through 12, respectively. Animals were dosed via oral gavage once daily for 10 days at a volume of 2 mL/kg. The vehicle control article was 1% methyl cellulose (400 cps) in citric acid and phosphate buffer.
Parameters assessed included mortality, clinical observations, body weights and food consumption and blood glucose evaluations.
All animals were anesthetized via carbon dioxide, sacrificed, and discarded without further evaluation on Day 11.

[2] = system: C57BL/6 Diet Induced Obese (DIO) mice; assay: Oral (P.O.) administration study in DIO mice: in vivo activity, body weights; set-up: species or system mouse; conditions: for Individual Body Weight: individual male animals; for change in vivo at 2 mg/kg: Mus musculus, po, read-out: Body weight, %-Diff
Source text: The purpose of this study was to assess test articles in the Diet Induced Obese (DIO) mouse.
Male C57BL/6 Diet Induced Obese (DIO) mice were received from Taconic. Animals were acclimated to housing conditions for at least 1 week prior to vehicle acclimation dosing. Animals were acclimated to oral gavage dosing with vehicle once daily for Days 11 through 14 of the predose phase.
At initiation of dosing, animals were 21 to 22 weeks old, and their body weights ranged from 29.8 to 40.1 g.
Dose formulations were administered by oral gavage once daily for 10 days at a dose volume of 2 mL/kg. Doses were based on the most recently recorded scheduled body weight.
Body weights were recorded daily on Days 11 through 14 of the predose phase. Body weights were collected for all animals daily during the dosing phase prior to dosing.
Descriptive statistics (n, mean, standard error of the mean, standard deviation) were completed. Additionally, one-way analysis of variance followed by Dunnett's post-hoc test were performed on body weight (cumulative body weight change), glucose (glucose percent change), and food consumption (cumulative food consumption). Area under the curve (for body weight, cumulative body weight change, daily body weight change, and food consumption) was computed for treatment groups. An appropriate comparison test, such as one-way analysis of variance and Dunnett's, was performed on the group means for the area under the curve computations. Any additional statistical analysis and interpretation of the results were the responsibility of the sponsor.

[3] = DIO mice, male, 2 mg/kg, phase DSNG, Day 7
[4] = DIO mice, male, 2 mg/kg, phase DSNG, Day 8
[5] = DIO mice, male, 2 mg/kg, phase DSNG, Day 9
[6] = DIO mice, male, 2 mg/kg, phase DSNG, Day 10
[7] = DIO mice, male, 2 mg/kg, phase DSNG, Day 11
[8] = Day 1, DSNG phase, 2 mg/kg, male, N=5
[9] = Day 2, DSNG phase, 2 mg/kg, male, N=5
[10] = Day 3, DSNG phase, 2 mg/kg, male, N=5
[11] = Day 4, DSNG phase, 2 mg/kg, male, N=5
[12] = Day 5, DSNG phase, 2 mg/kg, male, N=5
[13] = Day 6, DSNG phase, 2 mg/kg, male, N=5

CC(=O)N(C)C[C@]1(C)CC[C@]2(C)CC[C@]3(C)C4=CC=C5C(=CC(=O)C(O)=C5C)[C@]4(C)CC[C@@]3(C)[C@@H]2C1 [ERX1149]
Individual Animal Fate: Fate Status ([1]; mouse, in vivo): Scheduled Sacrifice
Individual Body Weight ([2]; 2 mg/kg, Phase Day DSNG 1): 33.3 g and 35.8 g and 39.7 g and 31.5 g and 34.3 g
Individual Body Weight ([2]; 2 mg/kg, Phase Day DSNG 2): 32.2 g and 34.8 g and 39.9 g and 31.7 g and 34.1 g
Individual Body Weight ([2]; 2 mg/kg, Phase Day PRED 11 (pre-dose baseline)): 33.3 g and 38.3 g and 41.4 g and 33.7 g and 35.6 g
Individual Body Weight ([2]; 2 mg/kg, Phase Day PRED 12 (pre-dose baseline)): 33.3 g and 37.3 g and 41.5 g and 33.4 g and 36.3 g
Individual Body Weight ([2]; 2 mg/kg, Phase Day PRED 13 (pre-dose baseline)): 33.1 g and 36.8 g and 41.4 g and 32.3 g and 35.2 g
Individual Body Weight ([2]; 2 mg/kg, Phase Day PRED 14 (pre-dose baseline)): 33.5 g and 36.1 g and 41.0 g and 32.5 g and 36.5 g
Body weight, Mean [2, 3]: 32.8 g
Body weight, Mean [2, 4]: 33.3 g
Body weight, Mean [2, 5]: 33.1 g
Body weight, Mean [2, 6]: 33.5 g
Body weight, Mean [2, 7]: 33.6 g
Body weight, Mean [2, 8]: 34.9 g
Body weight, Mean [2, 9]: 34.5 g
Body weight, Mean [2, 10]: 34.1 g
Body weight, Mean [2, 11]: 34.0 g
Body weight, Mean [2, 12]: 33.5 g
Body weight, Mean [2, 13]: 33.1 g
change in vivo at 2 mg/kg ([2]; 24 h, Day 1, DSNG phase, 2 mg/kg, male, difference of group mean): 2%
change in vivo at 2 mg/kg ([2]; 48 h, Day 2, DSNG phase, 2 mg/kg, male, difference of group mean): 0%
change in vivo at 2 mg/kg ([2]; 72 h, Day 3, DSNG phase, 2 mg/kg, male, difference of group mean): 1%
change in vivo at 2 mg/kg ([2]; 96 h, Day 4, DSNG phase, 2 mg/kg, male, difference of group mean): 2%
change in vivo at 2 mg/kg ([2]; 120 h, Day 5, DSNG phase, 2 mg/kg, male, difference of group mean): -1%
change in vivo at 2 mg/kg ([2]; 144 h, Day 6, DSNG phase, 2 mg/kg, male, difference of group mean): -1%
change in vivo at 2 mg/kg ([2]; 168 h, DIO mice, male, 2 mg/kg, phase DSNG, Day 7, difference of group mean from vehicle group 1): -2%
change in vivo at 2 mg/kg ([2]; 192 h, DIO mice, male, 2 mg/kg, phase DSNG, Day 8, difference of group mean from vehicle group 1): -1%
change in vivo at 2 mg/kg ([2]; 216 h, DIO mice, male, 2 mg/kg, phase DSNG, Day 9, difference of group mean from vehicle group 1): 0%
change in vivo at 2 mg/kg ([2]; 240 h, DIO mice, male, 2 mg/kg, phase DSNG, Day 10, difference of group mean from vehicle group 1): 0%
change in vivo at 2 mg/kg ([2]; 264 h, DIO mice, male, 2 mg/kg, phase DSNG, Day 11, difference of group mean from vehicle group 1): -1%

COC(=O)[C@]1(C)CC[C@]2(C)CC[C@]3(C)C4=CC=C5C(=CC(=O)C(O)=C5C)[C@]4(C)CC[C@@]3(C)[C@@H]2C1 [Pristimerin, reference compound]
Individual Animal Fate: Fate Status ([1]; individual male DIO mouse, phase of fate Dosing, phase week 2, phase day 11): Scheduled Sacrifice
Body weight, Mean [2, 3]: 33.5 g
Body weight, Mean [2, 4]: 33.1 g
Body weight, Mean [2, 5]: 32.9 g
Body weight, Mean [2, 6]: 33.2 g
Body weight, Mean [2, 7]: 33.9 g
Body weight, Mean [2, 8]: 34.2 g
Body weight, Mean [2, 9]: 34.0 g
Body weight, Mean [2, 10]: 33.7 g
Body weight, Mean [2, 11]: 33.3 g
Body weight, Mean [2, 12]: 33.3 g
Body weight, Mean [2, 13]: 33.4 g
change in vivo at 2 mg/kg ([2]; 24 h): 0%
change in vivo at 2 mg/kg ([2]; 48 h): -1%
change in vivo at 2 mg/kg ([2]; 72 h): -1%
change in vivo at 2 mg/kg ([2]; 96 h): 0%
change in vivo at 2 mg/kg ([2]; 120 h): -1%
change in vivo at 2 mg/kg ([2]; 144 h): 0%
change in vivo at 2 mg/kg ([2]; 168 h): 0%
change in vivo at 2 mg/kg ([2]; 192 h): -2%
change in vivo at 2 mg/kg ([2]; 216 h): -1%
change in vivo at 2 mg/kg ([2]; 240 h): -1%
change in vivo at 2 mg/kg ([2]; 264 h): -1%
Individual Body Weight, PRED 11 ([2]; individual male DIO mouse of the 2 mg/kg group, pre-dose phase day 11 (baseline)): 42.4 g and 35.2 g and 31.7 g and 38.2 g and 33.9 g
Individual Body Weight, PRED 12 ([2]; individual male DIO mouse of the 2 mg/kg group, pre-dose phase day 12 (baseline)): 41.2 g and 34.5 g and 31.0 g and 37.5 g and 32.5 g
Individual Body Weight, PRED 13 ([2]; individual male DIO mouse of the 2 mg/kg group, pre-dose phase day 13 (baseline)): 41.3 g and 33.4 g and 31.4 g and 37.3 g and 32.9 g
Individual Body Weight, PRED 14 ([2]; individual male DIO mouse of the 2 mg/kg group, pre-dose phase day 14 (baseline)): 41.9 g and 35.0 g and 31.6 g and 37.6 g and 33.1 g
Individual Body Weight, DSNG 1 ([2]; individual male DIO mouse, 2 mg/kg, dosing phase day 1, 2 mg/kg): 40.0 g and 33.3 g and 29.8 g and 35.5 g and 32.3 g
Individual Body Weight, DSNG 2 ([2]; individual male DIO mouse, 2 mg/kg, dosing phase day 2, 2 mg/kg): 39.4 g and 33.1 g and 30.2 g and 35.4 g and 32.1 g
